Drawing on ChEMBL document CHEMBL3886188, “Identification of human T2R receptors that respond to bitter compounds that elicit the bitter taste in compositions, and the use thereof in assays to identify compounds that inhibit (block) bitter taste in compositions and use thereof” (2016), this text covers IC50 for one molecule.

The assay addresses T1, Taste receptor type 2 member 8 (Homo sapiens, UniProt Q9NYW2).
T1 sequence (Q9NYW2 whole entry): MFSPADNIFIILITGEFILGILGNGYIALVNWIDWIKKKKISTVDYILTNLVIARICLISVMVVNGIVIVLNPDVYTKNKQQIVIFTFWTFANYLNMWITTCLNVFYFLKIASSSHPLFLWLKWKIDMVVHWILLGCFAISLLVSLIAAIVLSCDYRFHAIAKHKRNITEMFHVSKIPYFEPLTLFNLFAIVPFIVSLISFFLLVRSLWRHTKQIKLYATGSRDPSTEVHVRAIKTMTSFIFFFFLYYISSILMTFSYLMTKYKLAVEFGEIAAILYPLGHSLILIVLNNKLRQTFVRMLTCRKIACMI
Put plainly: Fluorescence Polarization Assays: In another embodiment, Fluorescence Polarization ("FP") based assays may be used to detect and monitor ligand binding. Fluorescence polarization is a versatile laboratory technique for measuring equilibrium binding, nucleic acid hybridization, and enzymatic activity. […] Generally, this technique can be used to measure polarization values of fluorophores from low picomolar to micromolar levels. In general terms: Fluorescence polarisation rises when a labelled molecule tumbles more slowly, as on binding a larger partner.

What is called IC50 is the concentration that inhibits the measured activity by half. A higher IC50 goes with weaker potency.

The molecule `Cc1noc(C)c1Cn1cc(N2CCCN(Cc3ccccc3)C2=O)cn1` had an IC50 of 1650 nM.
